Measurements: patent USRE37781E1, “Substituted cyclic carbonyls and derivatives thereof useful as retroviral protease inhibitors” (DuPont Pharmaceuticals Company, priority 1991, dated 2002)
Converted amounts (≈) assume the structure as drawn. Read-outs that look alike come from different tables or passages of the source.

How the values were obtained:
[1] = target: single-chain tethered dimer of HIV protease (Human immunodeficiency virus 1, UniProt P04585); experiment: biochemical; format: biochemical; design: fused on or other part: A second copy of the same protease unit is joined to the first by a short peptide tether, giving one polypeptide
HIV-1 (RF) in MT-2 cells = experiment: microbe, parasite or virus in culture; format: cell-based
Method: DNA Plasmids and in vitro RNA transcripts:
Plasmid pDAB 72 containing both gag and pol sequences of BH10 (bp 113-1816) cloned into PTZ 19R was prepared according to Erickson-Viitanen et al. AIDS Research and Human Retroviruses 1989, 5, 577. The plasmid was linearized with Bam HI prior to the generation of in vitro RNA transcripts using the Riboprobe Gemini system II kit (Promega) with T7 RNA polymerase. Synthesized RNA was purified by treatment with RNase free DNAse (Promega), phenol-chloroform extraction, and ethanol precipitation. RNA transcripts were dissolved in water, and stored at −70° C. The concentration of RNA was determined from the A260.
Biotinylated capture probes were purified by HPLC after synthesis on an Applied Biosystems (Foster City, Calif.) DNA synthesizer by addition of biotin to the 5′ terminal end of the oligonucleotide, using the biotin-phosphoramidite reagent of Cocuzza, Tet. Lett. 1989, 30, 6287. The gag biotinylated capture probe (5-biotin-[…] 3′) was complementary to nucleotides 889-912 of HXB2 and the pol biotinylated capture probe (5′-biotin-[…] 3′) was complementary to nucleotides 2374-2395 of HXB2. Alkaline phosphatase conjugated oligonucleotides used as reporter probes were prepared by Syngene (San Diego, Calif.). The pol reporter probe (5′ […] 3′) was complementary to nucleotides 2403-2425 of HXB2. The gag reporter probe (5′ […] 3′) was complementary to nucleotides 950-973 of HXB2. All nucleotide positions are those of the GenBank Genetic Sequence Data Bank as accessed through the Genetics Computer Group Sequence Analysis Software Package (Devereau Nucleic Acids Research 1984, 12, 387). The reporter probes were prepared as 0.5μM stocks in 2× SSC (0.3M NaCl, 0.03M sodium citrate), 0.05M Tris pH 8.8, 1 mg/mL BSA. The biotinylated capture probes were prepared as 10 μM stocks in water.
Streptavidin coated plates:
Nunc-immunomodule microtiter plate strips were coated by addition of 200 μL of streptavidin (30 ug/mL, Scripps, La Jolla, Calif.) in freshly prepared 10 mM sodium carbonate (pH 9.6). Plates were incubated overnight at 4° C. Streptavidin solution was aspirated from the wells and a blocking buffer composed of phosphate buffered saline (PBS), 20 mg/mL bovine serum albumin (crystalline, nuclease and protease free, Calbiochem) and 100 mg/mL lactose (Sigma) was added to the plates for 3 hrs at room temperature. Blocking buffer was removed from the wells, which were allowed to dry overnight at room temperature and subsequently stored at 4° C. in zip lock bags with desiccant. For the majority of the compound evaluation experiments, streptavidin coated plates were obtained from Du Pont Biotechnology Systems (Boston, Mass.).
MT-2, CEM, and H9 cells were maintained in RPMI 1640 supplemented with 5% fetal calf serum (FCS), 2 mM L-glutamine and 50 μg/mL gentamycin, all from Gibco. Laboratory strains of HIV-1 (RF, MN and IIIB) were propagated in H9 cells in the same medium. Virus stocks were prepared approximately 1 month after acute infection of H9 cells by clarification of the tissue culture medium and storage of aliquots at −70° C. […] Each aliquot of virus stock used for infection was thawed only once. In some cases, infected H9 cells were shifted to Dulbecco's modified Eagle's medium 3-10 days before collection of virus in order to generate virus stocks in medium with low biotin content. Clinical isolates of HIV that had been passaged once in MT-2 cells were used to infect fresh MT-2 cells in RPMI medium. Three days after infection, cells were pelleted, resuspended and culture continued in Dulbecco's modified Eagle's medium as above. Virus stocks of clinical isolates were prepaid 10-15 days after infection when cytopathic effects were apparent in the culture.

[2] = Table 2d, class symbols, read-out: HPLC K1
[3] = read-out: HPLC K1, Table 2d, class symbols
[4] = Human immunodeficiency virus 1, MT2, 48 h, Table 2d, class symbols, read-out: IC90
[5] = Table 2d, HIV protease inhibition, HPLC method, read-out: HPLC K1
[6] = read-out: HPLC K1, Table 2d, HIV protease inhibition, HPLC method
[7] = Human immunodeficiency virus 1, MT2, 48 h, Table 2d, HIV RNA assay, read-out: IC90

SMILES: O=C1N(Cc2cnccc2O)C(Cc2ccccc2)C(O)C(O)C(Cc2ccccc2)N1Cc1cnccc1O (centres unmarked) [Example 14C]
- Ki [1, 2]: 10 to 1000 nM
- IC90 (HIV-1 (RF) in MT-2 cells; Table 2d, class symbols): + (+=>100 μg/mL)

SMILES: O=C1N(Cc2ccc(CO)cc2)C(Cc2ccccc2)C(O)C(O)C(Cc2ccccc2)N1Cc1ccc(CO)cc1 (centres unmarked) [Example 13M]
- Ki [1, 3]: < 10 nM
- IC90 (HIV-1 (RF) in MT-2 cells; [4]): < 10 µg/mL

SMILES: O=C1N(Cc2cnccc2Cl)C(Cc2ccccc2)C(O)C(O)C(Cc2ccccc2)N1Cc1cnccc1Cl (centres unmarked) [Example 13Z]
- Ki [1, 2]: 10 to 1000 nM
- IC90 (HIV-1 (RF) in MT-2 cells; Table 2d, class symbols): +++ (+++=<10 μg/mL)

SMILES: CCCCN1C(=O)N(CCCC)C(Cc2ccccc2[N+](=O)[O-])C(O)C(O)C1Cc1ccc([N+](=O)[O-])cc1 (centres unmarked) [20C]
- Ki ([1]; Table 2i, read-out: HPLC Ki): < 10 nM
- IC90 (HIV-1 (RF) in MT-2 cells; Table 2i): +++ (+++=<10 μg/mL)

SMILES: CCC(CN1C(=O)N(CC(CC)=NO)C(Cc2ccccc2)C(O)C(O)C1Cc1ccccc1)=NO (centres unmarked) [Example 15VP]
- Ki [1, 3]: 10 to 1000 nM
- IC90 (HIV-1 (RF) in MT-2 cells; [4]): 10 to 100 µg/mL (≈ 20.1 to 201 µM)

SMILES: O=C1N(Cc2nccs2)C(Cc2ccccc2)C(O)C(O)C(Cc2ccccc2)N1Cc1nccs1 (centres unmarked) [Example 13V]
- Ki [1, 2]: 10 to 1000 nM
- IC90 (HIV-1 (RF) in MT-2 cells; Table 2d, class symbols): ++ (++=10 to 100 μg/mL)

SMILES: COC(=O)CCCCCN1C(=O)N(CCCCCC(=O)OC)C(Cc2ccccc2)C(O)C(O)C1Cc1ccccc1 (centres unmarked) [Example 12H]
- Ki [1, 3]: 10 to 1000 nM
- IC90 (HIV-1 (RF) in MT-2 cells; [4]): 10 to 100 µg/mL (≈ 17.2 to 172 µM)

SMILES: CNC(=O)OCCCCCN1C(=O)N(CCCCCOC(=O)NC)C(Cc2ccccc2)C(O)C(O)C1Cc1ccccc1 (centres unmarked) [15EK]
- Ki [1, 5]: 10 to 1000 nM
- IC90 (HIV-1 (RF) in MT-2 cells; Table 2d, HIV RNA assay): ++ (++=10 to 100 μg/mL)

SMILES: CNc1n[nH]c2ccc(CN3C(=O)N(Cc4ccc5[nH]nc(NC)c5c4)C(Cc4ccccc4)C(O)C(O)C3Cc3ccccc3)cc12 (centres unmarked) [15DH]
- Ki [1, 5]: < 10 nM
- IC90 (HIV-1 (RF) in MT-2 cells; Table 2d, HIV RNA assay): +++ (+++=<10 μg/mL)

SMILES: O=C1N(Cc2cccc(-c3cc[nH]n3)c2)C(Cc2ccccc2)C(O)C(O)C(Cc2ccccc2)N1Cc1cccc([N+](=O)[O-])c1 (centres unmarked) [Example 15CD]
- Ki [1, 6]: < 10 nM
- IC90 (HIV-1 (RF) in MT-2 cells; [7]): < 10 µg/mL

SMILES: O=C1N(Cc2cccc(CO)c2)C(Cc2ccccc2)C(O)C(O)C(Cc2ccccc2)N1Cc1ccccc1O (centres unmarked) [15EB]
- Ki [1, 5]: 10 to 1000 nM
- IC90 (HIV-1 (RF) in MT-2 cells; Table 2d, HIV RNA assay): +++ (+++=<10 μg/mL)

SMILES: O=C1N(Cc2cccc(O)c2)C(Cc2ccccc2)C(O)C(O)C(Cc2ccccc2)N1Cc1ccccn1 (centres unmarked) [10Q]
- Ki [1, 3]: 10 to 1000 nM
- IC90 (HIV-1 (RF) in MT-2 cells; [4]): < 10 µg/mL

SMILES: O=C1NC(Cc2ccccc2)C(O)C(O)C(Cc2ccccc2)N1CCCCCO (centres unmarked) [Example 15VG]
- Ki [1, 3]: < 10 nM
- IC90 (HIV-1 (RF) in MT-2 cells; [4]): < 10 µg/mL

SMILES: Cl.O=C(OCc1ccc(CN2C(=O)N(Cc3ccc(COC(=O)c4ccc(CN5CCOCC5)cc4)cc3)[C@H](Cc3ccccc3)[C@H](O)[C@@H](O)[C@H]2Cc2ccccc2)cc1)c1ccc(CN2CCOCC2)cc1 [29T]
- Ki ([1]; Table 2s, read-out: Ki (HPLC)): > 1000 nM
- IC90 (HIV-1 (RF) in MT-2 cells; Table 2s): +++ (+++=<10 μg/mL)

SMILES: CCCCN1C(=O)N(CCCC)C(Cc2ccccc2)C(O)C(O)C1Cc1ccccc1 (centres unmarked) [Example 13R]
- Ki [1, 3]: 10 to 1000 nM
- IC90 (HIV-1 (RF) in MT-2 cells; [4]): < 10 µg/mL

SMILES: CN(C)S(=O)(=O)n1ccnc1-c1cccc(CN2C(=O)N(Cc3cccc(-c4nccn4S(=O)(=O)N(C)C)c3)C(Cc3ccccc3)C(O)C(O)C2Cc2ccccc2)c1 (centres unmarked) [Example 15BM]
- Ki [1, 6]: 10 to 1000 nM
- IC90 (HIV-1 (RF) in MT-2 cells; [7]): < 10 µg/mL

SMILES: O=C1N(Cc2ccc3c(c2)CCNC3)C(Cc2ccccc2)C(O)C(O)C(Cc2ccccc2)N1Cc1ccc2c(c1)CCNC2 (centres unmarked) [Example 13T]
- Ki [1, 2]: 10 to 1000 nM
- IC90 (HIV-1 (RF) in MT-2 cells; Table 2d, class symbols): + (+=>100 μg/mL)

SMILES: COCCCCCN1C(=O)N(CCCCCOC)C(Cc2ccccc2)C(O)C(O)C1Cc1ccccc1 (centres unmarked) [Example 15VV]
- Ki [1, 3]: 10 to 1000 nM
- IC90 (HIV-1 (RF) in MT-2 cells; [4]): 10 to 100 µg/mL (≈ 19 to 190 µM)

SMILES: Nc1ccc(CC2C(O)C(O)C(Cc3ccc(N)cc3)N(CC3CC3)C(=O)N2CC2CC2)cc1 (centres unmarked) [Example 20F]
- Ki ([1]; read-out: HPLC Ki, Table 2i): 10 to 1000 nM
- IC90 (HIV-1 (RF) in MT-2 cells; Human immunodeficiency virus 1, MT2, Table 2i, read-out: IC90): < 10 µg/mL
